The text below walks through data of patent publication US20240174690A1, “ANNULATED 2-AMINO-3-CYANO THIOPHENES AND DERIVATIVES FOR THE TREATMENT OF CANCER” (BOEHRINGER INGELHEIM INTERNATIONAL GMBH, priority 2021, published 2024).

As a reminder, the IC50 is the concentration at which inhibition is half-maximal.

The target in data set [1] is KRAS (G12C)::SOS1 (Homo sapiens (Human), UniProt P01116, C118S/C51S/C80L/G12C). The data set is described as follows: KRAS::SOS1 AlphaScreen binding assay, KRAS G12C. From the text:
This assay can be used to examine the potency with which compounds according to the invention binding to (mutated) KRAS inhibit the protein-protein interaction between SOS1 and (mutated) KRAS e.g., KRAS WT, KRAS G12C, KRAS G12D, KRAS G12V, KRAS G13D. […] Low IC50 values in this assay setting are indicative of strong inhibition of protein-protein interaction between SOS1 and KRAS:
These assays measure the inhibitory effect of compounds on KRAS mutant protein-protein interactions using the Alpha Screen technology by Perkin Elmer.
The following (mutant) enzyme forms of KRAS and interacting proteins are used in these assays at the given concentrations: • KRAS (G12D) 1-169, N-terminal 6His-tag, C-terminal avi-tag (Xtal BioStructures, Inc.); final assay concentration 10 nM and SOS1 564-1049, N-terminal 229 GST-tag, TEV cleavage site (Viva Biotech Ltd); final assay concentration 5 nM; • KRAS (G12C) 1-169, N-terminal 6His-tag for purification, cleaved off, C-terminal avi-tag, biotinylated, mutations: C51S, C80L, C118S (in house); final assay concentration 7.5 nM and SOS1 564-1049, N-terminal 229 GST-tag, TEV cleavage site (Viva Biotech Ltd); final assay concentration 5 nM; • KRAS (G12V) 1-169, N-terminal 6His-tag for purification, cleaved off, C-terminal avi-tag, biotinylated, TEV cleavage site, mutation: C118S, GDP loaded (in house); final assay concentration 10 nM and SOS1 564-1049, N-terminal 229 GST-tag, TEV cleavage site (Viva Biotech Ltd); final assay concentration 10 nM; • KRAS (G13D) 1-169, N-terminal 6His-tag for purification, cleaved off, C-terminal avi-tag, biotinylated, TEV cleavage site, mutation: C118S, GDP loaded (in house); final assay concentration 10 nM and SOS1 564-1049, N-terminal 229 GST-tag, TEV cleavage site (Viva Biotech Ltd); final assay concentration 10 nM; • KRAS (WT) 1-169, N-terminal 6His-tag for purification, cleaved off, C-terminal avi-tag, biotinylated, TEV cleavage site, mutation: C118S, GDP loaded (in house); final assay concentration 10 nM and SOS1 564-1049, N-terminal 229 GST-tag, TEV cleavage site (Viva Biotech Ltd); final assay concentration 10 nM.
Test compounds dissolved in DMSO are dispensed onto assay plates (Proxiplate 384 PLUS, white, PerkinElmer; 6008289) using an Access Labcyte Workstation with the Labcyte Echo 55×. For the chosen highest assay concentration of 100 μM, 150 nL of compound solution are transferred from a 10 mM DMSO compound stock solution. A series of eleven fivefold dilutions per compound are transferred to the assay plate, compound dilutions are tested in duplicates. DMSO are added as backfill to a total volume of 150 nL.
The assays run on a fully automated robotic system in a darkened room below 100 Lux. To 150 nl of compound dilution 10 μl of a mix including KRAS mutant protein, SOS1 (final assay concentrations see above) and GDP nucleotide (Sigma G7127; final assay concentration 10 μM) in assay buffer (1×PBS, 0.1% BSA, 0.05% Tween 20) are added into columns 1-24.
After 30 minutes incubation time 5 μl of Alpha Screen bead mix in assay buffer are added into columns 1-23. Bead mix consists of AlphaLISA Glutathione Acceptor Beads (PerkinElmer, Cat No AL109) and AlphaScreen Streptavidin Donor Beads (PerkinElmer Cat No 6760002) in assay buffer at a final assay concentration of 10 μg/ml each.
Plates are kept at room temperature in a darkened incubator. After an additional 60 minutes incubation time the signal is measured in a PerkinElmer Envision HTS Multilabel Reader using the AlphaScreen specs from PerkinElmer.
Each plate contains up to 16 wells of a negative control depending on the dilution procedure (platewise or serial) (DMSO instead of test compound; with KRAS mutant::SOS1 GDP mix and bead mix; column 23) and 16 wells of a positive control (DMSO instead of test compound; with KRAS mutant::SOS1 GDP mix w/o bead mix; column 24).
As internal control known inhibitors of KRAS mutant::SOS1 interaction can be measured on each compound plate. […]

In data set [2] the target is CYP3A4 (Homo sapiens (Human), UniProt P08684). The data set can be described thus: Mechanism based inhibition of CYP3A4 assay (MBI 3A4). It is filed as in vitro ADME. The note with it: hydroxy-midazolam formation after 30 min vs 0 min preincubation, 25 uM, human liver microsomes. On the procedure: After preincubation, the incubate is diluted 1:10 and the substrate midazolam is added for the main incubation (15 min). The main incubation is quenched with acetonitrile and the formation of hydroxy-midazolam is quantified via LC/MS-MS. The formation of hydroxy-midazolam from the 30 min preincubation relative to the formation from the 0 min preincubation is used as a readout. Values of less than 100% mean that the substrate midazolam is metabolized to a lower extent upon 30 min preincubation compared to 0 min preincubation. In general low effects upon 30 min preincubation are desired (corresponding to values close to 100%/not different to the values determined with water control).
Sequence of CYP3A4 (P08684 whole entry): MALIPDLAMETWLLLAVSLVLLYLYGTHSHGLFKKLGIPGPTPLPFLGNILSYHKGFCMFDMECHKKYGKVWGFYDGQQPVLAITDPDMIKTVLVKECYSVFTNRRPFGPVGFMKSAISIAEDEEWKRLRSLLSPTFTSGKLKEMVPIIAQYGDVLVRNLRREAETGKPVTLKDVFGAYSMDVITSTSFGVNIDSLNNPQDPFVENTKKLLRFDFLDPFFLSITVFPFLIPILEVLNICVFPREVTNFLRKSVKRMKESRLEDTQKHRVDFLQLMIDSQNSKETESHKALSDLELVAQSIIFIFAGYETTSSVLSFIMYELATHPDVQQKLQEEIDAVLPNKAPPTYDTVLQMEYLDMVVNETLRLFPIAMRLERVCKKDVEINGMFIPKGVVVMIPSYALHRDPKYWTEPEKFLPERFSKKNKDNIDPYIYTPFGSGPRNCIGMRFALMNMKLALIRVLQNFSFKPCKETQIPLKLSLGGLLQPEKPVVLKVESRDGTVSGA

Data set [3] has as its system KRAS G12D-dependent Ba/F3 cells. The data set can be described thus: Ba/F3 proliferation assay, KRAS G12D. It is filed as cell-based. As to conditions: Mus musculus, BaF3, 72 h, AlamarBlue. On the procedure: Plasmids containing KRASG12 mutants (i.e. […], G12C, G12V) are obtained from GeneScript. To generate KRASG12-dependent Ba/F3 models, Ba/F3 cells are transduced with retroviruses containing vectors that harbor KRASG12 isoforms. Platinum-E cells (Cell Biolabs) are used for retrovirus packaging. Retrovirus is added to Ba/F3 cells. To ensure infection, 4 μg/mL polybrene is added and cells are spinfected. […] Cells with an infection efficiency of 10% to 20% are further cultivated and puromycin selection with 1 μg/mL is initiated. As a control, parental Ba/F3 cells are used to show selection status. Selection is considered successful when parental Ba/F3 cells cultures died. To evaluate the transforming potential of KRASG12 mutations, the growth medium is no longer supplemented with IL-3. Ba/F3 cells harboring the empty vector are used as a control. Approximately ten days before conducting the experiments, puromycin is left out.
Compounds are added using an Access Labcyte Workstation with a Labcyte Echo 550 or 555 accoustic dispenser. All treatments are performed in technical duplicates. […] AlamarBlue™ (ThermoFisher), a viability stain, is added and fluorescence measured in the PerkinElmer Envision HTS Multilabel Reader. The raw data are imported into and analyzed with the Boehringer Ingelheim proprietary software MegaLab (curve fitting based on the program PRISM, GraphPad Inc.).

Sequence of KRAS (G12C)::SOS1 (P01116 other isoform, or with tags, fused parts or gaps G12C/C51S/C80L/C118S): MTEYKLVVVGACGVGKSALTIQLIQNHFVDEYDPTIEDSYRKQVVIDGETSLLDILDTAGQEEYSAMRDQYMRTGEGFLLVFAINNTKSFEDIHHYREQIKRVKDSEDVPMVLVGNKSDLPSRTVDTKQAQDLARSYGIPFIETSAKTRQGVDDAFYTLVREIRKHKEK

In the case of `C[C@H](Oc1cc(N2CCNC3(CC3)C2)nc(-c2onc3c2CCC[C@@]32CCCc3sc(N)c(C#N)c32)n1)[C@@H]1CCCN1C` [I-5], the IC50 in data set [1] was determined as 2 nM; in data set [3] it was 3 nM. The “MBI 3A4” value in data set [2] stood at 34%.

With `C[C@H](Oc1cc(N2C[C@H](C)N[C@@H](C)C2)nc(-c2onc3c2CCC[C@@]32CCCc3sc(N)c(C#N)c32)n1)[C@@H]1CCCN1C` [I-6], the results for the IC50 in data set [1] and in data set [3] were 5 nM and 14 nM, respectively. Besides, in data set [2], the “MBI 3A4” value is reported as 79%.

As to `C[C@H]1CN(C)CCCN1c1cc(N2CCN(C)CC2)nc(-c2onc3c2CCC[C@@]32CCCc3sc(N)c(C#N)c32)n1` [I-7], the IC50 in data set [1] amounted to 23 nM; in data set [3] it was 190 nM.

Take `C[C@H](Oc1cc(N2C[C@H](C)NC3(CC3)C2)nc(-c2onc3c2CCC[C@@]32CCCc3sc(N)c(C#N)c32)n1)[C@@H]1CCCN1C` [I-8]: the IC50 in data set [1] and in data set [3] was 4 nM each time. The “MBI 3A4” value in data set [2] is 25%.

For `C[C@H](Oc1cc(N2CCN3CCC3C2)nc(-c2onc3c2CCC[C@@]32CCCc3sc(N)c(C#N)c32)n1)[C@@H]1CCCN1C` (stereo partly shown) [I-9], the values for the IC50 in data set [1] and in data set [3] were 5 nM and 92 nM, respectively.

On to `C[C@H](Oc1cc(N2CCNC[C@@]23CCOC3)nc(-c2noc3c2CCC[C@@]32CCCc3sc(N)c(C#N)c32)n1)[C@@H]1CCCN1C` [II-51], for which the IC50 in data set [1] is 4 nM; in data set [3] it was 37 nM.

Turning to `C[C@H](Oc1cc(-n2cc3c(n2)CCNC3)nc(-c2noc3c2CCC[C@@]32CCCc3sc(N)c(C#N)c32)n1)[C@@H]1CCCN1C` [II-53], the “MBI 3A4” value in data set [2] was determined as 80%. Besides, the IC50 in data set [3] is 57 nM.

As for `C[C@H](Oc1cc(N2CCOC3(CC3)C2)nc(-c2noc3c2CCC[C@@]32CCCc3sc(N)c(C#N)c32)n1)[C@@H]1CCCN1C` [II-61], the IC50 in data set [1] is 2 nM; in data set [3], 55 nM.

Consider `C[C@H](Oc1cc(N2CCNC2=O)nc(-c2noc3c2CCC[C@@]32CCCc3sc(N)c(C#N)c32)n1)[C@@H]1CCCN1C` [II-64], for which the results for the IC50 in data set [1] and in data set [3] were 2 nM and 11 nM, respectively.

For the molecule `C[C@H](Oc1cc(-n2cnc3cccnc32)nc(-c2noc3c2CCC[C@@]32CCCc3sc(N)c(C#N)c32)n1)[C@@H]1CCCN1C` [II-65], the IC50 in data set [1] turned out to be 4 nM; in data set [3], 122 nM.

As for `C[C@H](Oc1cc(N2CCCC3(COC3)C2)nc(-c2noc3c2CCC[C@@]32CCCc3sc(N)c(C#N)c32)n1)[C@@H]1CCCN1C` [II-72], the results for the IC50 in data set [1] and in data set [3] were 2 nM and 39 nM, respectively.

With `C[C@H](Oc1cc(N2CCOC3(COC3)C2)nc(-c2noc3c2CCC[C@@]32CCCc3sc(N)c(C#N)c32)n1)[C@@H]1CCCN1C` [II-77], the results for the IC50 in data set [1] and in data set [3] were 2 nM and 28 nM, respectively.

As to `Cc1nccn1-c1cc(O[C@@H](C)[C@@H]2CCCN2C)nc(-c2noc3c2CCC[C@@]32CCCc3sc(N)c(C#N)c32)n1` [II-79], the IC50 was found to be 2 nM in data set [1] and 45 nM in data set [3].

As for `C[C@H](Oc1cc(-c2cncs2)nc(-c2noc3c2CCC[C@@]32CCCc3sc(N)c(C#N)c32)n1)[C@@H]1CCCN1C` [II-80], the IC50 turned out to be 7 nM in data set [1] and 41 nM in data set [3].

Consider `C[C@H](Oc1cc(-c2ccn(C3COC3)n2)nc(-c2noc3c2CCC[C@@]32CCCc3sc(N)c(C#N)c32)n1)[C@@H]1C[C@H](F)CN1C` [II-83], for which the IC50 in data set [1] is 5 nM; in data set [3], 33 nM.

Turning to `C[C@H](Oc1cc(-c2ccn(-c3ccsc3)n2)nc(-c2noc3c2CCC[C@@]32CCCc3sc(N)c(C#N)c32)n1)[C@@H]1CCCN1C` [II-84], the figures for the IC50 in data set [1] and in data set [3] were 3 nM and 79 nM, respectively.

With `C[C@H](Oc1cc(N2CCc3cccnc32)nc(-c2noc3c2CCC[C@@]32CCCc3sc(N)c(C#N)c32)n1)[C@@H]1CCCN1C` [II-90], the IC50 in data set [1] came out at 7 nM; in data set [3], 397 nM.

Consider `C[C@H](Oc1cc(-n2cccc3cnnc2-3)nc(-c2noc3c2CCC[C@@]32CCCc3sc(N)c(C#N)c32)n1)[C@@H]1CCCN1C` [II-92], for which the values for the IC50 in data set [1] and in data set [3] were 5 nM and 120 nM, respectively.

Take `C[C@H](Oc1cc(-n2ccnc2Cl)nc(-c2noc3c2CCC[C@@]32CCCc3sc(N)c(C#N)c32)n1)[C@@H]1CCCN1C` [II-93]: the results for the IC50 in data set [1] and in data set [3] were 3 nM and 43 nM, respectively.

For `C[C@H](Oc1cc(-c2cn(C3COC3)nn2)nc(-c2noc3c2CCC[C@@]32CCCc3sc(N)c(C#N)c32)n1)[C@@H]1CCCN1C` [II-100], the results for the IC50 in data set [1] and in data set [3] were 3 nM and 56 nM, respectively.

As for `C[C@H](Oc1cc(-c2ccc(N)nc2)nc(-c2noc3c2CCC[C@@]32CCCc3sc(N)c(C#N)c32)n1)[C@@H]1CCCN1C` [II-101], the IC50 in data set [1] is 2 nM; in data set [3], 155 nM.

Regarding `C[C@H](Oc1cc(-n2ccc(C#N)n2)nc(-c2noc3c2CCC[C@@]32CCCc3sc(N)c(C#N)c32)n1)[C@@H]1CCCN1C` [II-102], the IC50 in data set [1] came to 2 nM; in data set [3], 14 nM.

`C[C@H](Oc1cc(-n2cc(Cn3ccnc3)nn2)nc(-c2noc3c2CCC[C@@]32CCCc3sc(N)c(C#N)c32)n1)[C@@H]1CCCN1C` [II-113]: the results for the IC50 in data set [1] and in data set [3] were 2 nM and 106 nM, respectively.

On to `C[C@H](Oc1cc(-c2cn(C3CCOCC3)nn2)nc(-c2noc3c2CCC[C@@]32CCCc3sc(N)c(C#N)c32)n1)[C@@H]1CCCN1C` [II-115], for which the IC50 worked out at 8 nM in data set [1] and 131 nM in data set [3].

Regarding `C[C@H](Oc1cc(-n2ccncc2=O)nc(-c2noc3c2CCC[C@@]32CCCc3sc(N)c(C#N)c32)n1)[C@@H]1CCCN1C` [II-116], the IC50 in data set [1] was 2 nM; in data set [3] it was 30 nM.

For `C[C@H](Oc1cc(-n2cc(Cn3cncn3)nn2)nc(-c2noc3c2CCC[C@@]32CCCc3sc(N)c(C#N)c32)n1)[C@@H]1CCCN1C` [II-124], the results for the IC50 in data set [1] and in data set [3] were 2 nM and 58 nM, respectively.
